Key:
[1] = tested on: Sugen-Hypoxia (SuHx) rat model; assay: Sugen-Hypoxia (SuHx) rat model of PAH: RVSP by right heart catheterization, Fulton's index, PV remodeling; type: in vivo
Description: Sugen-Hypoxia (SuHx) rat model was used where a single administration of the VEGF inhibitor SU-5416 is followed by 3 weeks of hypoxia (10% O2) and PAH develops between 3-5 weeks after rats (adult Sprague-Daley males) are returned to room air. To test the effect of EYA-PTP inhibition on the development of PAH, benzarone (BZ) was administered every 3 days for 5 weeks after return to room air. The rats were maintained for a further 3 weeks in room air and then right ventricular systolic pressure (RVSP) measured by right heart catheterization. The increase in RVSP in BZ-treated rats was 32% less in BZ-treated rats than in vehicle-treated rats. Fulton's index (right ventricle/left ventricle plus septum weight) was also lower (by 28% relative to vehicle-treated controls) in BZ-treated animals indicating reduced RV hypertrophy.

[2] = tested on: γ-H2AX and 53BP1 foci in PASMC; assay: γ-H2AX and 53BP1 staining (DDR) in lungs from rats subject to the SuHx protocol; type: in vivo, rat; details: lungs of SuHx rats treated with EYA-PTP inhibitor
From the text: γ-H2AX foci report on the existence of DSBs, and the assembly of functional DDR complexes is characterized by the presence of 53BP1 foci. Rats subject to the SuHx protocol show increased γ-H2AX and 53BP1 staining in both PAEC and PASMC, likely as a result of oxidative stress. Rats treated with EYA-PTP inhibitor BZ had reduced γ-H2AX staining, as well as reduced 53BP1 foci formation in PASMC.

[3] = rat SuHx model of PH, statement in words

CCc1oc2ccccc2c1C(=O)c1ccc(O)cc1 [BZ, benzarone]
increase in RVSP, less than in vehicle-treated rats ([1]; SuHx rats, administered every 3 days for 5 weeks after return to room air, measured after a further 3 weeks in room air): 32% | Fulton's index (right ventricle/left ventricle plus septum weight), lower relative to vehicle-treated controls ([1]; SuHx rats, same regimen, indicates reduced RV hypertrophy): 28% | PV remodeling [1, 3]: effectively reduces | RVSP [1, 3]: effectively reduces | 53BP1 foci formation in PASMC [2]: reduced | γ-H2AX staining [2]: reduced
